Measured values as given in ChEMBL document CHEMBL5338793, “Discovery of Pyrimidinediamine Derivatives as Potent Methuosis Inducers for the Treatment of Triple-Negative Breast Cancer” (J Med Chem, 2023).

Assays:
HCC1806 [1] = assay: Antiproliferative activity against human HCC1806 cells assessed as inhibition of cell proliferation at 1 uM incubated for 24 hrs by SRB assay relative to control; type: functional
HCC1806 [2] = assay: Antiproliferative activity against human HCC1806 cells assessed as inhibition of cell proliferation incubated for 24 hrs by SRB assay; type: functional, cell-based; conditions: HCC1806, 24 h
HCC1806 [3] = assay: Antiproliferative activity against human HCC1806 cells assessed as inhibition of cell proliferation at 2 uM incubated for 24 hrs by SRB assay relative to control; type: functional
184B5 = assay: Cytotoxicity against human 184B5 cells assessed as reduction in cell viability at 2 uM incubated for 24 hrs by SRB assay; type: toxicity, cell-based; conditions: 184b5, 24 h
HCC1806 [4] = assay: Induction of morphological changes in human HCC1806 cells assessed as rate of intracellular vacuolization at 1 uM incubated for 24 hrs by microscopic analysis relative to control; type: functional

IC50 (HCC1806 [2]) | Structure (SMILES) | inhibition at 1 µM (HCC1806 [1]) | inhibition at 2 µM (HCC1806 [3]) | Activity (184B5) | Activity (HCC1806 [4])
 | COc1cnc(N2CCNCC2)nc1Nc1ccc(NC(=O)c2ccc3ccccc3n2)cc1C(F)(F)F | 13.3% |  |  | 
 | COc1cnc(N2CCNCC2)nc1Nc1ccc(NC(=O)c2ccncc2)cc1C(F)(F)F | 9.77% |  |  | 
 | COc1cc(Nc2cc(N3CCNCC3)ncn2)ccc1NC(=O)c1cccc(Br)n1 | 11.5% |  |  | 
 | COc1cnc(N2CCNCC2)nc1Nc1ccc(NC(=O)c2ncccc2Br)cc1C(F)(F)F | 6.13% |  |  | 
 | COc1cc(Nc2ccnc(N3CCNCC3)n2)ccc1NC(=O)c1cccc(Br)n1 | 10.6% |  |  | 
 | COc1cc(Nc2ncnc(N3CCNCC3)n2)ccc1NC(=O)c1cccc(Br)n1 | 10.8% |  |  | 
 | COc1cc(Nc2cc(N3CCNCC3)nc(SC)n2)ccc1NC(=O)c1cccc(Br)n1 | 11.1% |  |  | 
 | COc1cnc(N2CCNCC2)nc1Nc1ccc(NC(=O)c2cccc(F)n2)cc1C(F)(F)F | 4.48% |  |  | 
590 nM | COc1cc(Nc2nc(N3CCNCC3)ncc2Cl)ccc1NC(=O)c1cccc(Br)n1 | 99.2% | 10.7% | Toxic | 42.33%
970 nM | COc1cc(NC(=O)c2cccc(Br)n2)ccc1Nc1nc(N2CCNCC2)ncc1OC | 97.4% | 10.4% | Toxic | 30.17%
 | COc1cc(Nc2nc(N3C[C@@H](C)O[C@@H](C)C3)ncc2OC)ccc1NC(=O)c1cccc(Br)n1 | 8.34% |  |  | 
 | COc1cnc(N2CCNCC2)nc1Nc1ccc(NC(=O)c2cc(Br)ccn2)cc1C(F)(F)F | 12.3% |  |  | 
 | COc1cnc(N2CCNCC2)nc1Nc1ccc(NC(=O)c2ccccn2)cc1C(F)(F)F | 4.52% |  |  | 
 | COc1cc(Nc2nc(N3CCC(OC)CC3)ncc2OC)ccc1NC(=O)c1cccc(Br)n1 | 7.54% |  |  | 
890 nM | COc1cnc(N2CCNCC2)nc1Nc1ccc(NC(=O)c2cccc(Br)n2)cc1C#N | 99% | 12.6% | Toxic | 39.5%
 | COc1cc(Nc2nc(N3CCOCC3)ncc2OC)ccc1NC(=O)c1cccc(Br)n1 | 1.41% |  |  | 
420 nM | COc1cc(Nc2nc(N3CCNCC3)ncc2Br)ccc1NC(=O)c1cccc(Br)n1 | 99.3% | 38.1% | Non-Toxic | 65%

IC50 (HCC1806 [2]) | Structure (SMILES) | inhibition at 1 µM (HCC1806 [1]) | inhibition at 2 µM (HCC1806 [3]) | Activity (184B5) | Activity (HCC1806 [4])
770 nM | COc1cc(Nc2nc(N3CCNCC3)ncc2OC)ccc1NC(=O)c1cccc(Br)n1 | 99.3% | 59.9% | Non-Toxic | 26.5%
 | COc1cnc(N2CCNCC2)nc1Nc1ccc(NC(=O)c2cccnc2)cc1C(F)(F)F | 4.54% |  |  | 
 | COc1cnc(N2CCNCC2)nc1Nc1ccc(NC(=O)c2cccc(Br)n2)cn1 | 9.96% |  |  | 
 | COc1cnc(N2CCNCC2)nc1Nc1ccc(NC(=O)c2cccs2)cc1C(F)(F)F | 4.93% |  |  | 
 | COc1cnc(N2CCNCC2)nc1Nc1ccc(NC(=O)Cc2cccs2)cc1C(F)(F)F | 6.92% |  |  | 
870 nM | COc1cnc(N2CCNCC2)nc1Nc1cc(C)c(NC(=O)c2cccc(Br)n2)cc1C | 98.9% | 6.93% | Toxic | 42.33%
580 nM | COc1cnc(N2CCNCC2)nc1Nc1ccc(NC(=O)c2cccc(Br)n2)cc1C(F)(F)F | 99% | 71.7% | Non-Toxic | 41.5%
 | COc1cnc(N2CCNCC2)nc1Nc1ccc(NC(=O)c2cccc(Br)n2)cc1 | 17.4% |  |  | 
 | COc1cnc(N2CCNCC2)nc1Nc1ccc(NC(=O)c2cccc(Br)c2)cc1C(F)(F)F | 8.87% |  |  | 
370 nM | COc1cnc(N2CCNCC2)nc1Nc1ccc(NC(=O)c2cccc(Cl)n2)cc1C(F)(F)F | 94.1% | 52.9% | Non-Toxic | 36.83%
 | COc1cnc(N2CCNCC2)nc1Nc1ccc(NC(=O)c2cccc(Br)n2)cc1OC(F)(F)F | 84.8% |  |  | 
 | COc1cnc(N2CCNCC2)nc1Nc1ccc(NC(=O)c2cccc(Br)n2)c(C)c1 | 23.3% |  |  | 
 | COc1cnc(N2CCNCC2)nc1Nc1ccc(NC(=O)c2ccncn2)cc1C(F)(F)F | 6.52% |  |  | 
 | COc1cnc(N2CCNCC2)nc1Nc1ccc(NC(=O)c2cccc(C)n2)cc1C(F)(F)F | 11.2% |  |  | 
 | COc1cnc(N2CCNCC2)nc1Nc1ccc(NC(=O)c2cccc(Br)n2)cc1C | 3.6% |  |  | 
 | COc1cnc(N2CCNCC2)nc1Nc1ccc(NC(=O)c2ccco2)cc1C(F)(F)F | 1.86% |  |  | 
 | COc1nc(Nc2ccc(NC(=O)c3cccc(Br)n3)c(OC)c2)nc(N2CCNCC2)n1 | 4.27% |  |  | 
